Test [1] has as its target T1, IL-1 induced down-regulation of the epidermal growth factor (EGF) receptor in normal human dermal fibroblasts (NHDF) (Homo sapiens, UniProt P14778).
T1 sequence (P14778 18-569): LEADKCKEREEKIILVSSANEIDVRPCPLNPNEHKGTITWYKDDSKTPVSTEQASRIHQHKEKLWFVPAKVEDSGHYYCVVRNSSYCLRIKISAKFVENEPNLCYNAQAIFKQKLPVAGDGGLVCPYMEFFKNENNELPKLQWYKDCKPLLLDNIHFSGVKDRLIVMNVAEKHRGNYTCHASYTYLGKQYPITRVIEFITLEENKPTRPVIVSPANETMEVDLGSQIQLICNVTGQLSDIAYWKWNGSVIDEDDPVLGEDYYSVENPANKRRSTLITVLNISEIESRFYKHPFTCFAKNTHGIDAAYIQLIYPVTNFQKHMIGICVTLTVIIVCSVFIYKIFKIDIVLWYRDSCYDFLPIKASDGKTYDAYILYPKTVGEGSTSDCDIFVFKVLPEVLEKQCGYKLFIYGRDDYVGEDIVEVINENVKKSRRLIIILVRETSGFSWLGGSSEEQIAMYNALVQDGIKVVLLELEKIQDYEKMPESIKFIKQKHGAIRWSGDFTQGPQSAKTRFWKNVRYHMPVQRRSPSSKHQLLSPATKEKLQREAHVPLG
Kind of test: Epidermal Growth Factor Receptor Down Regulation Assay. To be noted: 37° C., in the presence of IL-1α, 125I-labeled EGF binding, read-out: IC50 (approximate concentration which blocked 50% of the IL-1 induced down regulation of the EGF receptor). The format is cell-based. An excerpt:
The protocol set forth in Bird and Saklatvala (1989) J. Immunol. […] This assay examines the effect of the compounds of the invention on the IL-1 induced down-regulation of the epidermal growth factor (EGF) receptor as measured by the binding of ^125 I-labeled EGF to its receptor in normal human dermal fibroblasts (NHDF). […] The table below lists the approximate concentration of representative peptides of the invention which blocked 50% of the IL-1 induced down regulation of the EGF receptor. IC50 values are indicated symbolically by the symbols "-", "+", and "++". […] Those peptides which give IC50 values of less than or equal to 100 μM are given a "+", while those which give IC50 values of 500 nM or less are indicated with a "++". Those peptides which give IC50 values at or near the cutoff point for a particular symbol are indicated with a hybrid, e.g. "±". Those peptides for which IC50 values were not determined are listed as "N.D".

Test [2] has as its target T2, IL-1 induced E-selectin in HUVEC cells (Homo sapiens, UniProt P14778).
T2 sequence (P14778 18-569): T1 sequence (P14778 18-569)
Kind of test: Peptide Effects on IL-1 Induced E-Selectin (HUVEC Cells). In kind it is cell-based. As to conditions: 120 pM IL-1α, read-out: IC50 (concentration required to inhibit 50% of IL-1 induced E-selectin expression). The method, then: The compounds of the present invention were assayed for their ability to inhibit the expression of IL-1 induced E-selectin in HUVEC cells (human umbilical vein endothelial cells). HUVEC cells are grown to confluency in the wells of a 24-well microtiter plate. The compounds were serially diluted in DMEM/F12+0.1% BSA ("SFM"with 120 pM IL-1α. The cells were washed and then incubated with IL-1α and the compound to be tested for 15 minutes. The cells were again washed and incubated in SFM for 4 hours. The cells were washed and incubated with anti-selectin antibody for 30 minutes. Following antibody incubation, the cells were incubated with ^125 I Protein A and washed. The amount of ^125 I bound to the cells was then determined. The concentration of compounds required to inhibit 50% of IL-1 induced E-selectin expression is shown below.

The next test deals with T3, IL-1RtI (Homo sapiens, UniProt P14778).
T3 construct: made in house; host or cells: recombinant host cells (one form soluble from baculovirus transformed host cells; another PIG-tailed and cleaved from the cell surface)
T3 sequence (P14778 18-336): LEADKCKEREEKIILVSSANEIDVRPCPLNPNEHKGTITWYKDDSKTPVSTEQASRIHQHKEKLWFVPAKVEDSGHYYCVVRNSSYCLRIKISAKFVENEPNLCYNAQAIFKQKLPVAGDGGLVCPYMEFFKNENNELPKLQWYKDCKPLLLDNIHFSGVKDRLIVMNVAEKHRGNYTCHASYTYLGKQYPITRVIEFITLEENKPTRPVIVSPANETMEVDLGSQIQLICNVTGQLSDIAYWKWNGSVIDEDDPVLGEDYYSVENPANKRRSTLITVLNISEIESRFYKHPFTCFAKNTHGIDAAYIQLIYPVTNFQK
Kind of test: Inhibition of 125I-IL-1α binding to IL-1RtI (Example 3). Summed up: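 Competition with 90 pM 125I-IL-1α was run in duplicate for 2 h at 4 °C in HEPES-buffered RPMI with 1% BSA, pH 7.2-7.3, against either antibody-captured truncated receptor or cells with full-length IL-1RtI. Gamma counting of NaOH-detached material gave approximate IC50; high-affinity peptides used 24-well format.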

Where [3] appears, read: inhibition of 125I-IL-1α binding to IL-1RtI, soluble peptide unless marked *.

For 14 compounds, IC50 results are on record in patent publication US5861476A, “Peptides and compounds that bind to the IL-1 receptor” (Affymax Technologies N.V., priority 1995, dated 1999).

Like-named read-outs stand apart in the source and are kept apart here. Where a SMILES comes first, the peptide text is derived from it. Where no end group is shown, it is not given here. [ ]: non-standard residue; d: D form. pY = N[C@@H](Cc1ccc(OP(=O)(O)O)cc1)C(=O)O; 1Nal = N[C@@H](Cc1cccc2ccccc12)C(=O)O; Aze = O=C(O)[C@@H]1CCN1 Where only a bound is given, the exact number is not on record here.

Turning to `CC(=O)N[C@@H](Cc1ccccc1)C(=O)N[C@@H](CCC(=O)O)C(=O)N[C@@H](Cc1c[nH]c2ccccc12)C(=O)N[C@H](C(=O)N1CCC[C@H]1C(=O)N[C@H](C)C(=O)N[C@@H](Cc1c[nH]c2ccccc12)C(=O)N[C@@H](Cc1ccc(O)cc1)C(=O)N[C@@H](CCC(N)=O)C(=O)N1CC[C@H]1C(=O)N[C@@H](Cc1ccc(O)cc1)C(N)=O)[C@@H](C)O` [AcFEWTPaWYQJY--NH2] (Ac-FEWTP[dA]WYQ[Aze]Y-NH2), the figures for the IC50 in test [1] and in test [2] were not above 100000 nM and not above 500 nM, respectively. On to `C[C@@H](O)[C@H](NC(=O)[C@H](Cc1c[nH]c2ccccc12)NC(=O)[C@H](CCC(=O)O)NC(=O)[C@@H](N)Cc1ccccc1)C(=O)N1CCC[C@H]1C(=O)NCC(=O)N[C@@H](Cc1ccc(O)cc1)C(=O)N[C@@H](Cc1c[nH]c2ccccc12)C(=O)N[C@@H](CCC(N)=O)C(=O)N1CC[C@H]1C(=O)N[C@@H](Cc1ccc(O)cc1)C(N)=O` [FEWTPGYWQJY--NH2] (H-FEWTPGYWQ[Aze]Y-NH2), for which the IC50 in test [1] was not above 100000 nM; on IL-1RtI (setting [3]), not above 500 nM. The like results for `CC(C)C[C@H](NC(=O)[C@@H]1CCCN1C(=O)[C@H](CC(C)C)NC(=O)[C@H](C)NC(=O)[C@H](Cc1ccc(O)cc1)NC(=O)[C@@H]1CCN1C(=O)[C@H](CCC(N)=O)NC(=O)[C@H](Cc1c[nH]c2ccccc12)NC(=O)[C@H](Cc1ccc(O)cc1)NC(=O)[C@@H](NC(=O)[C@H](Cc1ccccc1)NC(=O)[C@@H](N)[C@@H](C)O)C(C)C)C(=O)O` [TFVYWQJYALPL] (H-TFVYWQ[Aze]YALPL-OH) were, in that order, more than 100000 nM and not above 100000 nM.

Consider ETPFTWEESNAYYWQPYALPL, for which the IC50 (in test [1]; on IL-1RtI (setting [3])) was not above 500 nM throughout. Regarding YIPFTWEESNAYYWQPYALPL, in test [1], the IC50 is not above 500 nM. On the same count and under the same terms, next, “FEWTPGYWQPYALPLSD-NH2 [FEWTPGYWQPYALPLSD--NH2]”: not above 500 nM. In the case of `CC(C)C[C@H](NC(=O)[C@@H]1CCCN1C(=O)[C@H](CC(C)C)NC(=O)[C@H](C)NC(=O)[C@H](Cc1ccc(O)cc1)NC(=O)[C@@H]1CCN1C(=O)[C@H](CCC(N)=O)NC(=O)[C@H](Cc1ccc(OP(=O)(O)O)cc1)NC(=O)[C@H](Cc1cccc2ccccc12)NC(=O)[C@@H](N)Cc1ccc(OP(=O)(O)O)cc1)C(=O)O` [pY(1Nap)pYQJYALPL] (H-[pY][1Nal][pY]Q[Aze]YALPL-OH), the IC50 in test [1] was not above 500 nM; at IL-1RtI it was less than 500 nM.

With DGYDRWRQSGERYWQPYALPL, the IC50 (in test [1]; at IL-1RtI (setting [3])) was not above 500 nM each time. Take `CC(C)C[C@H](NC(=O)[C@@H]1CCCN1C(=O)[C@H](CC(C)C)NC(=O)[C@H](C)NC(=O)[C@H](Cc1ccc(O)cc1)NC(=O)[C@@H]1CCN1C(=O)[C@H](CCC(N)=O)NC(=O)[C@H](Cc1ccc(O)cc1)NC(=O)[C@H](Cc1c[nH]c2ccccc12)NC(=O)CNC(=O)[C@@H]1CCCN1C(=O)[C@@H](NC(=O)[C@H](Cc1c[nH]c2ccccc12)NC(=O)[C@H](CCC(=O)O)NC(=O)[C@@H](N)Cc1ccccc1)[C@@H](C)O)C(=O)O` [FEWTPGWYQJYALPL] (H-FEWTPGWYQ[Aze]YALPL-OH): the IC50 in test [2] was not above 500 nM.

As for VWYWEQPYALPL [VWYWEQ PYALPL], the IC50 at IL-1RtI (setting [3]) was not above 100000 nM. Still for that read-out and setting: the value for TIIWEQPYALPL [TIIWEQ PYALPL] was not above 100000 nM. As for `CC(C)C[C@H](NC(=O)[C@@H]1CCCN1C(=O)[C@H](CC(C)C)NC(=O)[C@H](C)NC(=O)[C@H](Cc1ccc(O)cc1)NC(=O)[C@@H]1CCCN1C(=O)[C@H](CCC(N)=O)NC(=O)[C@H](Cc1c[nH]c2ccccc12)NC(=O)[C@H](Cc1ccc(O)cc1)NC(=O)[C@H](NC(=O)[C@H](Cc1ccccc1)NC(=O)[C@@H](N)[C@@H](C)O)C(C)C)C(=O)O` [TFvYWQPYALPL] (H-TF[dV]YWQPYALPL-OH), the IC50 in test [1] is more than 100000 nM. As to RSLYWQPYALPL [RSLYWQ PYALPL], at IL-1RtI (setting [3]), the IC50 was not above 100000 nM.

On IL-1RtI (setting [3]), SYDWEQPYALPL [SYDWEQ PYALPL] returned an IC50 not above 100000 nM.
